Test results published in article PMC9250534, “Synthesis and direct assay of large macrocycle diversities by combinatorial late-stage modification at picomole scale” (Nature Communications, 2022).

These compounds were tested against T1, thrombin (Homo sapiens, UniProt P00734) (assay: Thrombin inhibition screen of crude macrocycle reactions (residual thrombin activity, fluorogenic substrate Z-Gly-Gly-Arg-AMC)). Conditions: 10 µM macrocycle concentration; crude reactions, Library 1a-l; scaffold AA1-AA2-AA3 combined with 1-16 or '-'.
T1 construct: consists of two polypeptide chains of 36 (light chain) and 259 amino acid
Format: biochemical
Description: As a proof-of-concept, we screened the macrocycle library for inhibitors against thrombin, which is the central blood coagulation protease and an important therapeutic target. We conducted the screen for thrombin-inhibiting macrocycles in 384-well reaction plates. Briefly, each well contained a unique macrocycle (10 μM), 5 μL of thrombin (2 nM final conc.), and subsequently, 5 µL of a fluorogenic substrate to measure the residual thrombin activity and the extent of protease inhibition.
The assays were performed in 384-well plates using Tris buffer at pH 7.4 (100 mM Tris-Cl, 150 mM NaCl, 10 mM MgCl2, 1 mM CaCl2, 0.1% w/v BSA, 0.01% v/v Triton-X100, and 0.6% v/v DMSO) using thrombin at a final concentration of 2 nM and the fluorogenic substrate Z-Gly-Gly-Arg-AMC at a final concentration of 50 μM. Thrombin (5 μL, 6 nM) in the Tris-Cl buffer described above was added to each peptide using a BioTek MultiFlo microplate dispenser, and incubated for 10 min at room temperature. […] Data was collected and exported using the Tecan Infinite M200 Pro instrument software. […] For the negative controls (20 wells containing DMSO but no macrocycle), an average slope was calculated. The percent of thrombin inhibition was calculated by dividing the slopes and multiplying the results by 100.

| Structure (SMILES) | percent residual thrombin activity [%] |
| --- | --- |
| O=C(NCCCC[C@@H]1NC(=O)[C@@H](Cc2c[nH]c3ccccc23)NC(=O)[C@H]2CCCN(C2)C(=O)CCSSCCNC1=O)c1c[nH]c(=O)cn1 [B4-W-D1/9] | 96.1174 |
| O=C(COc1ccccc1)NCCCC[C@@H]1NC(=O)[C@@H](Cc2c[nH]c3ccccc23)NC(=O)[C@H]2CCCN(C2)C(=O)CCSSCCNC1=O [B4-W-D1/13] | 97.6967 |
| O=C(NCCCC[C@@H]1NC(=O)[C@@H](Cc2c[nH]c3ccccc23)NC(=O)[C@H]2CCCN(C2)C(=O)CCSSCCNC1=O)c1ccc(Cl)s1 [B4-W-D1/14] | 84.8525 |
| NCCCC[C@@H]1NC(=O)[C@@H](Cc2c[nH]c3ccccc23)NC(=O)[C@H]2CCCN(C2)C(=O)CCSSCCNC1=O [B4-W-D1/-] | 98.9418 |
| O=C(NCCCC[C@@H]1NC(=O)[C@@H](Cc2c[nH]c3ccccc23)NC(=O)[C@H]2CCCN(C2)C(=O)CCSSCCNC1=O)c1ccccc1 [B4-w-D1/1] | 105.33 |
| CC(C)CC(=O)NCCCC[C@@H]1NC(=O)[C@@H](Cc2c[nH]c3ccccc23)NC(=O)[C@H]2CCCN(C2)C(=O)CCSSCCNC1=O [B4-w-D1/8] | 116.689 |
| O=C(NCCCC[C@@H]1NC(=O)[C@@H](Cc2c[nH]c3ccccc23)NC(=O)[C@H]2CCCN(C2)C(=O)CCSSCCNC1=O)c1c[nH]c(=O)cn1 [B4-w-D1/9] | 111.618 |
| O=C(COc1ccccc1)NCCCC[C@@H]1NC(=O)[C@@H](Cc2c[nH]c3ccccc23)NC(=O)[C@H]2CCCN(C2)C(=O)CCSSCCNC1=O [B4-w-D1/13] | 115.4 |
| O=C(NCCCC[C@@H]1NC(=O)[C@@H](Cc2c[nH]c3ccccc23)NC(=O)[C@H]2CCCN(C2)C(=O)CCSSCCNC1=O)c1ccc(Cl)s1 [B4-w-D1/14] | 105.59 |
| NCCCC[C@@H]1NC(=O)[C@@H](Cc2c[nH]c3ccccc23)NC(=O)[C@H]2CCCN(C2)C(=O)CCSSCCNC1=O [B4-w-D1/-] | 108.066 |
| O=C1CCSSCCNC(=O)[C@H](Cc2c[nH]c3ccccc23)NC(=O)[C@H](CCCCNC(=O)c2ccc(Cl)s2)NC(=O)c2cccc(c2)CN1 [B5-D1-W/14] | 107.115 |
| CC[C@H](C)[C@@H]1NC(=O)[C@H](CCCNC(=O)c2cnccn2)NC(=O)c2cccc(c2)CNC(=O)CCSSCCNC1=O [B5-D2-I/2] | 109.077 |
| CC[C@H](C)[C@@H]1NC(=O)[C@H](CCCNC(=O)c2cc(C)on2)NC(=O)c2cccc(c2)CNC(=O)CCSSCCNC1=O [B5-D2-I/3] | 102.465 |
| CC[C@H](C)[C@@H]1NC(=O)[C@H](CCCNC(=O)c2c[nH]c(=O)[nH]c2=O)NC(=O)c2cccc(c2)CNC(=O)CCSSCCNC1=O [B5-D2-I/11] | 108.374 |
| CC[C@H](C)[C@@H]1NC(=O)[C@H](CCCNC(=O)Cc2c[nH]c3ccccc23)NC(=O)c2cccc(c2)CNC(=O)CCSSCCNC1=O [B5-D2-I/12] | 103.906 |
| CC[C@H](C)[C@@H]1NC(=O)[C@H](CCCNC(=O)COc2ccccc2)NC(=O)c2cccc(c2)CNC(=O)CCSSCCNC1=O [B5-D2-I/13] | 106.564 |
| CC[C@H](C)[C@@H]1NC(=O)[C@H](CCCNC(=O)c2snnc2C)NC(=O)c2cccc(c2)CNC(=O)CCSSCCNC1=O [B5-D2-I/15] | 106.982 |
| CC[C@H](C)[C@@H]1NC(=O)[C@H](CCCNC(=O)c2ccco2)NC(=O)c2cccc(c2)CNC(=O)CCSSCCNC1=O [B5-D2-I/16] | 105.125 |
| COc1ccc(C(=O)NCCCC[C@@H]2NC(=O)[C@H](CO)NC(=O)c3cccc(c3)CNC(=O)CCSSCCNC2=O)cn1 [B5-S-D1/10] | 101.444 |
| CC(C)CC(=O)NCCCC[C@@H]1NC(=O)C2(CC2)CNC(=O)CCSSCCNC(=O)[C@H](CCC(N)=O)NC1=O [B6-D1-Q/8] | 101.194 |
| NC(=O)CC[C@@H]1NC(=O)[C@H](CCCCNC(=O)c2c[nH]c(=O)[nH]c2=O)NC(=O)C2(CC2)CNC(=O)CCSSCCNC1=O [B6-D1-Q/11] | 105.488 |
| NC(=O)CC[C@@H]1NC(=O)[C@H](CCCCNC(=O)c2ccco2)NC(=O)C2(CC2)CNC(=O)CCSSCCNC1=O [B6-D1-Q/16] | 101.173 |

Continued, values first:

| percent residual thrombin activity [%] | Structure (SMILES) |
| --- | --- |
| 103.82 | NCCCC[C@@H]1NC(=O)C2(CC2)CNC(=O)CCSSCCNC(=O)[C@H](CCC(N)=O)NC1=O [B6-D1-Q/-] |
| 109.823 | CC(C)C[C@@H]1NC(=O)[C@H](CCCNC(=O)c2c[nH]c(=O)cn2)NC(=O)C2(CC2)CNC(=O)CCSSCCNC1=O [B6-D2-L/9] |
| 118.291 | CC(C)C[C@@H]1NC(=O)[C@H](CCCNC(=O)COc2ccccc2)NC(=O)C2(CC2)CNC(=O)CCSSCCNC1=O [B6-D2-L/13] |
| 108.209 | CC(C)[C@@H]1NC(=O)[C@H](CCCNC(=O)c2ccccc2)NC(=O)C2(CC2)CNC(=O)CCSSCCNC1=O [B6-D2-V/1] |
| 112.468 | CC(C)[C@@H]1NC(=O)[C@H](CCCN)NC(=O)C2(CC2)CNC(=O)CCSSCCNC1=O [B6-D2-V/-] |
| 97.8863 | O=C1CCSSCCNC(=O)[C@H](Cc2c[nH]c3ccccc23)NC(=O)[C@H](CCCNC(=O)c2ccccc2)NC(=O)C2(CC2)CN1 [B6-D2-W/1] |
| 95.9188 | O=C1CCSSCCNC(=O)[C@H](Cc2c[nH]c3ccccc23)NC(=O)[C@H](CCCNC(=O)c2cnccn2)NC(=O)C2(CC2)CN1 [B6-D2-W/2] |
| 93.1158 | COc1ccc(C(=O)NCCC[C@@H]2NC(=O)C3(CC3)CNC(=O)CCSSCCNC(=O)[C@H](Cc3c[nH]c4ccccc34)NC2=O)cn1 [B6-D2-W/10] |
| 94.9215 | O=C1CCSSCCNC(=O)[C@H](Cc2c[nH]c3ccccc23)NC(=O)[C@H](CCCNC(=O)c2c[nH]c(=O)[nH]c2=O)NC(=O)C2(CC2)CN1 [B6-D2-W/11] |
| 93.2541 | O=C1CCSSCCNC(=O)[C@H](Cc2c[nH]c3ccccc23)NC(=O)[C@H](CCCNC(=O)Cc2c[nH]c3ccccc23)NC(=O)C2(CC2)CN1 [B6-D2-W/12] |
| 95.6589 | O=C1CCSSCCNC(=O)[C@H](Cc2c[nH]c3ccccc23)NC(=O)[C@H](CCCNC(=O)COc2ccccc2)NC(=O)C2(CC2)CN1 [B6-D2-W/13] |
| 103.129 | CC(C)CC(=O)NCCC[C@@H]1NC(=O)C2(CC2)CNC(=O)CCSSCCNC(=O)[C@H](Cc2ccc(O)cc2)NC1=O [B6-D2-Y/8] |
| 103.418 | O=C1CCSSCCNC(=O)[C@H](Cc2ccc(O)cc2)NC(=O)[C@H](CCCNC(=O)c2c[nH]c(=O)cn2)NC(=O)C2(CC2)CN1 [B6-D2-Y/9] |
| 102.307 | COc1ccc(C(=O)NCCC[C@@H]2NC(=O)C3(CC3)CNC(=O)CCSSCCNC(=O)[C@H](Cc3ccc(O)cc3)NC2=O)cn1 [B6-D2-Y/10] |
| 102.523 | O=C1CCSSCCNC(=O)[C@H](Cc2ccc(O)cc2)NC(=O)[C@H](CCCNC(=O)c2c[nH]c(=O)[nH]c2=O)NC(=O)C2(CC2)CN1 [B6-D2-Y/11] |
| 103.867 | O=C1CCSSCCNC(=O)[C@H](Cc2ccc(O)cc2)NC(=O)[C@H](CCCNC(=O)Cc2c[nH]c3ccccc23)NC(=O)C2(CC2)CN1 [B6-D2-Y/12] |
| 105.408 | O=C1CCSSCCNC(=O)[C@H](Cc2ccc(O)cc2)NC(=O)[C@H](CCCNC(=O)COc2ccccc2)NC(=O)C2(CC2)CN1 [B6-D2-Y/13] |
| 95.7216 | O=C1CCSSCCNC(=O)[C@H](Cc2ccc(O)cc2)NC(=O)[C@H](CCCNC(=O)c2ccc(Cl)s2)NC(=O)C2(CC2)CN1 [B6-D2-Y/14] |
| 104.596 | O=C1CCSSCCNC(=O)[C@H](CCCCNC(=O)c2ccccc2)NC(=O)[C@H](Cc2ccc(O)cc2)NC(=O)C2(CC2)CN1 [B6-Y-D1/1] |
| 106.813 | O=C1CCSSCCNC(=O)[C@H](CCCCNC(=O)c2cnccn2)NC(=O)[C@H](Cc2ccc(O)cc2)NC(=O)C2(CC2)CN1 [B6-Y-D1/2] |
| 104.034 | COc1ccc(C(=O)NCCCC[C@@H]2NC(=O)[C@H](Cc3ccc(O)cc3)NC(=O)C3(CC3)CNC(=O)CCSSCCNC2=O)cn1 [B6-Y-D1/10] |
| 105.574 | O=C1CCSSCCNC(=O)[C@H](CCCCNC(=O)c2c[nH]c(=O)[nH]c2=O)NC(=O)[C@H](Cc2ccc(O)cc2)NC(=O)C2(CC2)CN1 [B6-Y-D1/11] |
| 101.278 | O=C1CCSSCCNC(=O)[C@H](CCCCNC(=O)Cc2c[nH]c3ccccc23)NC(=O)[C@H](Cc2ccc(O)cc2)NC(=O)C2(CC2)CN1 [B6-Y-D1/12] |
| 106.992 | O=C1CCSSCCNC(=O)[C@H](CCCCNC(=O)COc2ccccc2)NC(=O)[C@H](Cc2ccc(O)cc2)NC(=O)C2(CC2)CN1 [B6-Y-D1/13] |
| 105.617 | Cc1nnsc1C(=O)NCCCC[C@@H]1NC(=O)[C@H](Cc2ccc(O)cc2)NC(=O)C2(CC2)CNC(=O)CCSSCCNC1=O [B6-Y-D1/15] |
| 103.228 | O=C1CCSSCCNC(=O)[C@H](CCCCNC(=O)c2ccco2)NC(=O)[C@H](Cc2ccc(O)cc2)NC(=O)C2(CC2)CN1 [B6-Y-D1/16] |
